The nature of data set [1]: Drug distribution in lung of nude mouse xenografted with human HT-29 cells at 15 mg/kg, iv measured for 1 to 48 hrs by HPLC analysis. It is filed as ADME, organism-based. The settings on record: in vivo, time 1-48 hrs.
Data set [2] deals with HT-29. Kind of data set: Anti-tumor activity against human HT-29 cells xenografted in nude mouse at 15 mg/kg, iv measured for 35 days relative to control. It is filed as functional. Particulars: HT-29, 840 h, time 35 day, read-out: TGI. (A xenograft is tissue or cells of one species grown in another, often human tumour cells in immunodeficient mice.)
Data set [3] in a line: Stability of compound in PBS at pH 6.5 at 50 uM by HPLC analysis. It is filed as physicochemical. Particulars: buffer, pH 6.5, 50 µM.
Data set [4] can be described thus: Stability of compound in PBS at pH 7.4 at 50 uM by HPLC analysis. Format: physicochemical. Particulars: buffer, pH 7.4, 50 µM.
The nature of data set [5]: Stability in mouse plasma assessed as half life by HPLC analysis. Format: ADME, cell-free.
Data set [6] in a line: Prodrug conversion in mouse plasma assessed as drug release incubated for 24 hrs by HPLC analysis. It is filed as ADME, cell-free.
The test system of data set [7] is A549. Kind of data set: Cytotoxicity against human A549 cells incubated for 48 hrs by MTT assay. It is filed as functional, cell-based. In general terms: Tetrazolium dyes change colour on reduction, which living cells bring about.
Data set [8] relates to HepG2. Kind of data set: Cytotoxicity against human HepG2 cells incubated for 48 hrs by MTT assay. Format: functional, cell-based.
The test system of data set [9] is HT-29. As to the kind of experiment: Cytotoxicity against human HT-29 cells incubated for 48 hrs by MTT assay. It is filed as functional, cell-based.
Data set [10] concerns MG-63. As to the kind of experiment: Cytotoxicity against human MG-63 cells incubated for 48 hrs by MTT assay. It is filed as functional, cell-based.
For data set [11], the system named is MIA PaCa-2. Kind of data set: Cytotoxicity against human MIA PaCa-2 cells incubated for 48 hrs by MTT assay. It is filed as functional, cell-based.
Data set [12] in a line: Cmax in BALB/c mouse at 28 mg/kg, iv measured for 1 to 72 hrs by HPLC analysis. Format: ADME, organism-based. Particulars: in vivo, time 1-72 hrs.
A short description of data set [13]: Half life in BALB/c mouse at 28 mg/kg, iv measured for 1 to 72 hrs by HPLC analysis. It is filed as ADME, organism-based. The settings on record: in vivo, time 1-72 hrs.
The nature of data set [14]: Volume of distribution in BALB/c mouse at 28 mg/kg, iv measured for 1 to 72 hrs by HPLC analysis. Format: ADME, organism-based. Particulars: in vivo, time 1-72 hrs.
Data set [15] can be described thus: Clearance in BALB/c mouse at 28 mg/kg, iv measured for 1 to 72 hrs by HPLC analysis. It is filed as ADME, organism-based. Particulars: in vivo, time 1-72 hrs.
Data set [16] can be described thus: AUC (0 to infinity) in BALB/c mouse at 28 mg/kg, iv measured for 1 to 72 hrs by HPLC analysis. Format: ADME, organism-based. Particulars: in vivo, time 1-72 hrs.
Data set [17] can be described thus: Drug distribution in lung of nude mouse xenografted with human HT-29 cells at 17.9 mg/kg, iv measured for 1 to 48 hrs by HPLC analysis. Format: ADME, organism-based. The settings on record: in vivo, time 1-48 hrs.
Data set [18] can be described thus: Drug accumulation in lung of nude mouse xenografted with human HT-29 cells assessed as fold change in free SN38 at 28 mg/kg, iv measured for 50 hrs by HPLC analysis relative to Irinotecan. Format: ADME, organism-based. The settings on record: in vivo.
Data set [19] can be described thus: Drug accumulation in human HT-29 cells xenografted in nude mouse assessed as fold increase at 28 mg/kg, iv measured for 1 hr by HPLC analysis relative to Irinotecan. Format: ADME, organism-based. Particulars: in vivo.
Data set [20] is described as follows: Drug accumulation in human HT-29 cells xenografted in nude mouse assessed as fold increase at 28 mg/kg, iv measured for 6 hrs by HPLC analysis relative to Irinotecan. Format: ADME, organism-based. The settings on record: in vivo.
Data set [21] is described as follows: Drug accumulation in human HT-29 cells xenografted in nude mouse assessed as fold increase at 28 mg/kg, iv measured for 24 hrs by HPLC analysis relative to Irinotecan. Particulars: in vivo. It is filed as ADME, organism-based.
A short description of data set [22]: Drug accumulation in human HT-29 cells xenografted in nude mouse assessed as fold increase at 28 mg/kg, iv measured for 48 hrs by HPLC analysis relative to Irinotecan. The settings on record: in vivo. It is filed as ADME, organism-based.
Data set [23] deals with HT-29. As to the kind of experiment: Anti-tumor activity against human HT-29 cells xenografted in nude mouse at 28 mg/kg, iv measured for 35 days relative to control. Format: functional. The settings on record: HT-29, 840 h, time 35 day, read-out: TGI.
Data set [24] is described as follows: Toxicity in nude mouse xenografted with human HT-29 cells assessed as body weight change at 28 mg/kg, iv measured for 35 days. It is filed as organism-based. The settings on record: in vivo, 840 h, time 35 day.

Active and inactive are the calls of the source. The rule behind the calls is not given here.

Regarding `CCc1c2c(nc3ccc(OC(=O)N4CCC(N5CCCCC5)CC4)cc13)-c1cc3c(c(=O)n1C2)COC(=O)[C@]3(O)CC` [IRINOTECAN], the Drug uptake result in data set [1] is recorded as “Active”. The inhibition in vivo at 15 mg/kg in [2] is 62.3%.

As usually defined, the half-life is how long it takes for the measured level to halve. One may read the Cmax as the highest concentration seen after dosing. The Vd is the apparent volume that relates the amount in the body to the concentration in plasma or blood. The AUC is the area under the concentration-time curve, a measure of exposure. Higher therefore signals more exposure. Regarding `CCc1c2c(nc3ccc(O)cc13)-c1cc3c(c(=O)n1C2)COC(=O)[C@@]3(CC)OC(=O)CNC(=O)CCCCCCCCCCCCCCCCC(=O)O`, the Stability entry in [3] and in data set [4] was “Stable” each time. The half-life was 14 h in data set [5] and 4.37 h in data set [13]. For the same compound, the Drug metabolism result in data set [6] was “Metabolite_Detected”. Moreover, the outcome in data set [7], in [8], in [9], in [10] and in data set [11] was Active. In data set [12], this compound came in with a Cmax of 3670 ng/mL. This compound also had a Vd in data set [14] of 0.191 L. In data set [15], this compound came in with a CL of 0.517 mL/min/kg. In data set [16], this compound registered an area under the curve (AUC) of 23130 ng·h/mL. Further, the Drug uptake result in data set [17] is reported as “Active”. Also, the “fold change (FC)” value in data set [18] is 0.3; in [19] it was 2.5; in [20], 2.1; in data set [21], 1.6; in data set [22] it was 7.8. The inhibition in vivo at 28 mg/kg in [23] was 71%. The Activity entry in data set [24] is “Non-Toxic”.

The values above are taken from ChEMBL document CHEMBL5550147, “Supramolecular prodrug of SN38 based on endogenous albumin and SN38 prodrug modified with semaglutide side chain to improve the tumor distribution” (Bioorg Med Chem, 2024).
